Among the data in patent US20030004172A1, “Fused pyrimidinone matrix metalloproteinase inhibitors” (priority 2001, published 2003) are IC50 values, retold here.

The assay has as its target MMP-13CD (catalytic domain of collagenase-3) (Homo sapiens, UniProt P45452). Nature of the assay: Thiopeptolide substrate hydrolysis inhibition assay, MMP-13CD. The class given is biochemical. To be noted: Table I; thiopeptolide substrate, HEPES pH 7.0, 22° C.; read-out: MMP-13CD IC50. An excerpt: Thiopeptolide substrates show virtually no decomposition or hydrolysis at or below neutral pH in the absence of a matrix metalloproteinase enzyme.

As a reminder, the IC50 is the midpoint of a concentration-inhibition curve. As for `Cn1c(=O)n(Cc2ccccc2)c(=O)c2cc(C(=O)OCc3ccoc3)sc21` [Example 207, 3-Benzyl-1-methyl-2,4-dioxo-1,2,3,4-tetrahydro-thieno[2,3-d]pyrimidine-6-carboxylic acid furan-3-ylmethyl ester], the IC50 was determined as 0.2 µM.
The figure for `COc1ccc(COC(=O)c2cc3c(=O)n(Cc4ccccc4)c(=O)[nH]c3s2)cc1` [Example 50, 3-Benzyl-2,4-dioxo-1,2,3,4-tetrahydro-thieno[2,3-d]pyrimidine-6-carboxylic acid 4-methoxy-benzyl ester] is 0.0875 µM; for `Cn1c(=O)n(Cc2ccccc2)c(=O)c2cc(C(=O)OCCc3ccccc3)sc21` [Example 172, 3-Benzyl-1-methyl-2,4-dioxo-1,2,3,4-tetrahydro-thieno[2,3-d]pyrimidine-6-carboxylic acid phenethyl ester] it is 32 µM.
The figure for `Cn1c(=O)n(Cc2ccccc2)c(=O)c2cc(C(=O)NCc3cccc(C(F)(F)F)c3)sc21` [Example 335, 3-Benzyl-1-methyl-2,4-dioxo-1,2,3,4-tetrahydro-thieno[2,3-d]pyrimidine-6-carboxylic acid 3-trifluoromethyl-benzylamide] is 0.25 µM; for `Cn1c(=O)n(Cc2ccccc2)c(=O)c2cc(C(=O)OCc3cc4ccccc4s3)sc21` [Example 304, 3-Benzyl-1-methyl-2,4-dioxo-1,2,3,4-tetrahydro-thieno[2,3-d]pyrimidine-6-carboxylic acid benzo[b]thiophen-2-ylmethyl ester] it is 3.1 µM; for `Cn1c(=O)n(Cc2ccccc2)c(=O)c2cc(C(=O)OCc3ccc(F)cc3)sc21` [Example 153, 3-Benzyl-1-methyl-2,4-dioxo-1,2,3,4-tetrahydro-thieno[2,3-d]pyrimidine-6-carboxylic acid 4-fluoro-benzyl ester] it is 0.004 µM.
In the case of “3-Benzyl-1-methyl-2,4-dioxo-1,2,3,4-tetrahydro-thieno[2,3-d]pyrimidine-6-carboxylic acid ((S)-2,2-dimethyl-4-phenyl-1,3-dioxinan-5-yl)-amide [Example 341]”, the IC50 is 14 µM.
As for `Cn1c(=O)n(Cc2ccccc2)c(=O)c2cc(C(=O)OCCC3CCCCN3)sc21` (stereo not drawn) [Example 195, 3-Benzyl-1-methyl-2,4-dioxo-1,2,3,4-tetrahydro-thieno[2,3-d]pyrimidine-6-carboxylic acid 2-piperidin-2-yl-ethyl ester], the IC50 is more than 100 µM.
With `CC(CN(C)C)OC(=O)c1cc2c(=O)n(Cc3ccccc3)c(=O)n(C)c2s1` (stereo not drawn) [Example 165, 3-Benzyl-1-methyl-2,4-dioxo-1,2,3,4-tetrahydro-thieno[2,3-d]pyrimidine-6-carboxylic acid 2-dimethylamino-1-methyl-ethyl ester], the IC50 amounted to 20 µM.
In the case of `Cn1c(=O)n(Cc2ccccc2)c(=O)c2cc(C(=O)OCc3c(F)cccc3F)sc21` [Example 158, 3-Benzyl-1-methyl-2,4-dioxo-1,2,3,4-tetrahydro-thieno[2,3-d]pyrimidine-6-carboxylic acid 2,6-difluoro-benzyl ester] it was 16 µM.
For `Cn1c(=O)n(Cc2ccc(Cl)nc2)c(=O)c2cc(C(=O)OCc3ccccc3)sc21` [Example 136, 3-(6-Chloro-pyridin-3-ylmethyl)-1-methyl-2,4-dioxo-1,2,3,4tetrahydro-thieno[2,3-d]pyrimidine-6-carboxylic acid benzyl ester], the IC50 was found to be 0.051 µM.
In the case of `CCCCOC(=O)c1cc2c(=O)n(Cc3ccccc3)c(=O)n(C)c2s1` [Example 150, 3-Benzyl-1-methyl-2,4-dioxo-1,2,3,4-tetrahydro-thieno[2,3-d]pyrimidine-6-carboxylic acid butyl ester] it was 13 µM.
The figure for `COc1cccc(CNC(=O)c2cc3c(=O)n(Cc4ccc(OC(F)(F)F)cc4)c(=O)n(C)c3s2)c1` [Example 83, 1-Methyl-2,4-dioxo-3-(4-trifluoromethoxy-benzyl)-1,2,3,4-tetrahydro-thieno[2,3-d]pyrimidine-6-carboxylic acid 3-methoxy-benzylamide] is 0.14 µM; for `Cn1c(=O)n(Cc2ccccc2)c(=O)c2cc(C(=O)OCC3CCCCO3)sc21` (stereo not drawn) [Example 178, 3-Benzyl-1-methyl-2,4-dioxo-1,2,3,4-tetrahydro-thieno[2,3-d]pyrimidine-6-carboxylic acid tetrahydro-pyran-2-ylmethyl ester] it is more than 100 µM.
The figure for `COc1cccc(CCNC(=O)c2cc3c(=O)n(Cc4ccccc4)c(=O)n(C)c3s2)c1` [Example 342, 3-Benzyl-1-methyl-2,4-dioxo-1,2,3,4-tetrahydro-thieno[2,3-d]pyrimidine-6-carboxylic acid[2-(3-methoxy-phenyl)-ethyl]-amide] is more than 100 µM.
For `Cn1c(=O)n(Cc2ccccc2)c(=O)c2cc(C(=O)NCc3ccccc3)sc21` [Example 148, 3-Benzyl-1-methyl-2,4-dioxo-1,2,3,4-tetrahydro-thieno[2,3-d]pyrimidine-6-carboxylic acid benzyl amide], the IC50 was 0.54 µM.
On to `COc1cccc(CNC(=O)c2cc3c(=O)n(CCS(=O)(=O)Cc4ccccc4)c(=O)n(C)c3s2)c1` [Example 282], for which the IC50 came to 10 µM.
The figure for `COc1ccc(CNC(=O)c2cc3c(=O)n(CC#Cc4ccccc4)c(=O)n(C)c3s2)cc1` [Example 385, 1-Methyl-2,4-dioxo-3-(3-phenyl-prop-2-ynyl)-1,2,3,4-tetrahydro-thieno[2,3-d]pyrimidine-6-carboxylic acid 4-methoxy-benzylamide] is 0.007 µM; for `Cn1c(=O)n(CCCc2ccccc2)c(=O)c2cc(C(=O)OCc3ccccc3)sc21` [Example 143, 1-Methyl-2,4-dioxo-3-(3-phenyl-propyl)-1,2,3,4-tetrahydro-thieno[2,3-d]pyrimidine-6-carboxylic acid benzyl ester] it is 0.28 µM.
The figure for `CC(=O)OCCn1c(=O)c2cc(C(=O)OCc3ccccc3)sc2n(C)c1=O` [Example 145, 3-(2-Acetoxy-ethyl)-1-methyl-2,4-dioxo-1,2,3,4-tetrahydro-thieno[2,3-d]pyrimidine-6-carboxylic acid benzyl ester] is 1.3 µM.
The figure for `COc1cccc(CNC(=O)c2cc3c(=O)n(CCc4cccc5ccccc45)c(=O)n(C)c3s2)c1` [Example 285] is 30 µM; for `Cn1c(=O)n(Cc2ccccc2)c(=O)c2cc(C(=O)NCc3ccc(Cl)cc3Cl)sc21` [Example 329, 3-Benzyl-1-methyl-2,4-dioxo-1,2,3,4-tetrahydro-thieno[2,3-d]pyrimidine-6-carboxylic acid 2,4-dichloro-benzylamide] it is 30 µM.
As to `Cn1c(=O)n(Cc2ccccc2)c(=O)c2cc(C(=O)OCCN3CCCC3)sc21` [Example 175, 3-Benzyl-1-methyl-2,4-dioxo-1,2,3,4-tetrahydro-thieno[2,3-d]pyrimidine-6-carboxylic acid 2-pyrrolidin-1-yl-ethyl ester], the IC50 was more than 100 µM.
In the case of `Cn1c(=O)n(CCCOc2ccccc2)c(=O)c2cc(C(=O)OCc3ccccc3)sc21` [Example 123, 1-Methyl-2,4-dioxo-3-(3-phenoxy-propyl)-1,2,3,4-tetrahydro-thieno[2,3-d]pyrimidine-6-carboxylic acid benzyl ester], the IC50 amounted to 7.8 µM.
